Experimental data reported in ChEMBL document CHEMBL5465560, “Selectivity Literature for EUbOPEN Chemogenomic Library” (2024).
Values belong to the molecule of their own block, whether it stands above or below them.

Legend:
[1] = biological target: G protein-coupled receptor kinase 4 (Homo sapiens) (UniProt P32298); assay: Selectivity interaction (SelectScreen profiling (Invitrogen)) EUB0000607a GRK4; details: at 2 µM
[2] = biological target: Serine/threonine-protein kinase SMG1 (Homo sapiens) (UniProt Q96Q15); assay: Selectivity interaction (ActivX KiNativ screen (kinase selectivity in THP-1 cell lysates)) EUB0000639a SMG1; type: subcellular; details: lysate, at 5 µM
[3] = biological target: Vascular endothelial growth factor receptor 3 (Homo sapiens, UniProt P35916); assay: Selectivity interaction (ProQinase) EUB0000171b FLT4
[4] = biological target: T1, Myosin-IIIb (Homo sapiens) (UniProt Q8WXR4); assay: Selectivity interaction (Ambit KINOMEscan and KiNATiv profiling in Jurkat cells) EUB0000090b MYO3B; type: cell-based; details: at 1 µM
T1 sequence (whole entry): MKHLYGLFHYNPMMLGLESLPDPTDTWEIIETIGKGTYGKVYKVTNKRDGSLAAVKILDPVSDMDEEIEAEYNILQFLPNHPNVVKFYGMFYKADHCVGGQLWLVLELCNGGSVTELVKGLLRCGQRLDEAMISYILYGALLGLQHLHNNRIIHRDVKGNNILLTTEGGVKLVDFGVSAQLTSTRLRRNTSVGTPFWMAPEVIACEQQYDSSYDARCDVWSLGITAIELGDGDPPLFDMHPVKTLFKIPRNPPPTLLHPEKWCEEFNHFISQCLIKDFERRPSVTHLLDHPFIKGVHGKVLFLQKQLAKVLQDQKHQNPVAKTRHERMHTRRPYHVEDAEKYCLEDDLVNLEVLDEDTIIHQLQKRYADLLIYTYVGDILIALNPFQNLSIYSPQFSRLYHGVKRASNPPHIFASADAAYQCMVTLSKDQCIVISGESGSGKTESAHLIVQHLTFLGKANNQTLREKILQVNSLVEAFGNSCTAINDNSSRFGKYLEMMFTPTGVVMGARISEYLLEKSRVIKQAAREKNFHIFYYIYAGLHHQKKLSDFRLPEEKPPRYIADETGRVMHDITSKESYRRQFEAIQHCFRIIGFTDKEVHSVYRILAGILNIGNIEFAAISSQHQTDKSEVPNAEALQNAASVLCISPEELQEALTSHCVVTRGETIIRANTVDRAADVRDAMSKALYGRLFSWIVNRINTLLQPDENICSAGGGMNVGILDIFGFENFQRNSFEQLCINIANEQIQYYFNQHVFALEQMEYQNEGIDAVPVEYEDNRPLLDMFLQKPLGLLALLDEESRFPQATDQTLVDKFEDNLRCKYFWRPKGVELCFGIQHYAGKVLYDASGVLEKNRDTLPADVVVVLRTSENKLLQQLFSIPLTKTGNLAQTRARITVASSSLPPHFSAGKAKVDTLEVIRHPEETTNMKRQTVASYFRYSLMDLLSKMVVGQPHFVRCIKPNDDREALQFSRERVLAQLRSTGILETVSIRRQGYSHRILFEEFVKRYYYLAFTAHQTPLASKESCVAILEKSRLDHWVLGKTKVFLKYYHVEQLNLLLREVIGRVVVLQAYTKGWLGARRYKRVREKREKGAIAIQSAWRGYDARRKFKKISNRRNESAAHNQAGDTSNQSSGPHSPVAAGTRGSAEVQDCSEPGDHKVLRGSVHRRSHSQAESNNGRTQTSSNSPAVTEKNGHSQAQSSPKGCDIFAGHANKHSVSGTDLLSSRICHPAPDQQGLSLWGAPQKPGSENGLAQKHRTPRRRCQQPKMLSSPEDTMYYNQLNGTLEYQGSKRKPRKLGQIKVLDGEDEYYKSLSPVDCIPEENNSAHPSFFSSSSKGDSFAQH

[5] = biological target: Serine/threonine-protein kinase MRCK beta (Homo sapiens) (UniProt Q9Y5S2); assay: Selectivity interaction (KinomeScan (DiscoverX)) EUB0000655a CDC42BPB; details: at 10 µM
[6] = biological target: T2, Interleukin-1 receptor-associated kinase 4 (Homo sapiens) (UniProt Q9NWZ3); assay: Selectivity interaction (KinomeScan (DiscoverX)) EUB0000092b IRAK4; details: at 10 µM
T2 sequence (whole entry): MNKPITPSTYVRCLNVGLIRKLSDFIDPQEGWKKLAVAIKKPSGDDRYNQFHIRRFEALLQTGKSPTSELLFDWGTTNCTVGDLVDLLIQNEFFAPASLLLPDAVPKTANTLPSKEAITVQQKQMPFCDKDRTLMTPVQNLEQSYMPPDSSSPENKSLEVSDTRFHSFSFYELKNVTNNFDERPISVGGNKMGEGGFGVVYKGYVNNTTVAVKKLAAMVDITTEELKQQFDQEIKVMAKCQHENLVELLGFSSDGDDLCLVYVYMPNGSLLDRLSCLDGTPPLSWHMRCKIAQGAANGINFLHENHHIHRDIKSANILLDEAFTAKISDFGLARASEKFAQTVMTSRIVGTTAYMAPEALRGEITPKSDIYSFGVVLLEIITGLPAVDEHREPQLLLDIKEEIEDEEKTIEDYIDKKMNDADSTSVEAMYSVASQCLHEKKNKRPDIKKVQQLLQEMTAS

[7] = biological target: Serine/threonine-protein kinase 25 (Homo sapiens) (UniProt O00506); assay: Selectivity interaction (KinomeScan (DiscoverX)) EUB0000092b STK25; details: at 10 µM
[8] = biological target: Phosphatidylinositol 4-kinase beta (Homo sapiens, UniProt Q9UBF8); assay: Selectivity interaction (ActivX KiNativ screen (ex vivo kinase selectivity in human PBMCs)) EUB0001619a PI4KB; type: cell-based; details: PBMC, at 1 µM
[9] = biological target: SRSF protein kinase 3 (Homo sapiens) (UniProt Q9UPE1); assay: Selectivity interaction (KinomeScan (DiscoverX)) EUB0001619a SRPK3; details: at 1 µM
Sequence of SRSF protein kinase 3 (Homo sapiens) (Q9UPE1 whole entry): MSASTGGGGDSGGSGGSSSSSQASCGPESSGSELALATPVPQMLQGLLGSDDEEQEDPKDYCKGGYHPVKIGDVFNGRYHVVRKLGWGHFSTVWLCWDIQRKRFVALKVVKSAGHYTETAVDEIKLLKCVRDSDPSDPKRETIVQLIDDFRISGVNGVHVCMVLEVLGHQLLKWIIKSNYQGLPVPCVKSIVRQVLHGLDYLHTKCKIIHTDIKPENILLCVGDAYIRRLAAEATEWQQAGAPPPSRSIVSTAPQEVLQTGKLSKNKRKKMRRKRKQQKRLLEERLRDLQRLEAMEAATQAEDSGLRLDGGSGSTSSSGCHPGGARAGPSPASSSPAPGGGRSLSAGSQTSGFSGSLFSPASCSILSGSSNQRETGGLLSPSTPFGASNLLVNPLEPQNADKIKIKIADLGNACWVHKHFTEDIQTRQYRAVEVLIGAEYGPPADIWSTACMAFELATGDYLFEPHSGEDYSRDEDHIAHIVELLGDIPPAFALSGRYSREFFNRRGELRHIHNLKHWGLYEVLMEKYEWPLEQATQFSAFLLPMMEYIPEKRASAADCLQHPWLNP

Sequence of Vascular endothelial growth factor receptor 3 (P35916 whole entry): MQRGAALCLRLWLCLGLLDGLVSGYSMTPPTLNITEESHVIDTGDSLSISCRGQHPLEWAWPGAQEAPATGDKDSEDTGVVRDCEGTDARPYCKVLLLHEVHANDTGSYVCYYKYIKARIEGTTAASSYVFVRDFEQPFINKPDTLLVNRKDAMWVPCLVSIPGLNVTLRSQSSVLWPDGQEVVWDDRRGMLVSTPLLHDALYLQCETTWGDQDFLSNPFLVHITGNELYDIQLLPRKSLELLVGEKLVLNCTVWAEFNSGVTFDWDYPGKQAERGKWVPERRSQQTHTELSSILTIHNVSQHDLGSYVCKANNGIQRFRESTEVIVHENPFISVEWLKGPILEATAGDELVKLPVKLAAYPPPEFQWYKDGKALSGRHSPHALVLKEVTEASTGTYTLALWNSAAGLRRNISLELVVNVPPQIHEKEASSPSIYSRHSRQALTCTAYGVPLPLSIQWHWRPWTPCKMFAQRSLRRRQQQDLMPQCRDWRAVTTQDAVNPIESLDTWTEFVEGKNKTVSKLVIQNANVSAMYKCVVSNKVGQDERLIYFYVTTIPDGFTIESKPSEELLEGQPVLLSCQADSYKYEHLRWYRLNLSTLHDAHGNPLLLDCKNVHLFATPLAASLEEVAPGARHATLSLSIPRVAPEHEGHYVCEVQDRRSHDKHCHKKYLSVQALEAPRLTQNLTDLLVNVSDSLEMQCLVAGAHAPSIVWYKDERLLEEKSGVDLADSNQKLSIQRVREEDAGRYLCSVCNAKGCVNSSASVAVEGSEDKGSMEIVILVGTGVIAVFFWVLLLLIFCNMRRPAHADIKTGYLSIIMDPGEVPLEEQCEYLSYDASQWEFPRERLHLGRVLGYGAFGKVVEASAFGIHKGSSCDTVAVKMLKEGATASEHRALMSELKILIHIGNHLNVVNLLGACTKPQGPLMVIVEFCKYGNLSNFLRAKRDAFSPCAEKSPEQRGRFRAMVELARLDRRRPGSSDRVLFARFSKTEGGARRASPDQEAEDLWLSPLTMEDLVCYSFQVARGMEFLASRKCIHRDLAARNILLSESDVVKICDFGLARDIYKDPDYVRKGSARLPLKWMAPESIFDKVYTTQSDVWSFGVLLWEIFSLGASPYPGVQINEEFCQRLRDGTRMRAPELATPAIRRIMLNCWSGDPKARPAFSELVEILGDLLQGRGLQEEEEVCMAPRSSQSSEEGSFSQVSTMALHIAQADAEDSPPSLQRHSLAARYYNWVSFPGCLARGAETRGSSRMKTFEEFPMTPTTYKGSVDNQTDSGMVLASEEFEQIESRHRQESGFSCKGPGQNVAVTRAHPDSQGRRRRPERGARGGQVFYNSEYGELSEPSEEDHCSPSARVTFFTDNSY
Sequence of Serine/threonine-protein kinase MRCK beta (Homo sapiens) (Q9Y5S2 whole entry): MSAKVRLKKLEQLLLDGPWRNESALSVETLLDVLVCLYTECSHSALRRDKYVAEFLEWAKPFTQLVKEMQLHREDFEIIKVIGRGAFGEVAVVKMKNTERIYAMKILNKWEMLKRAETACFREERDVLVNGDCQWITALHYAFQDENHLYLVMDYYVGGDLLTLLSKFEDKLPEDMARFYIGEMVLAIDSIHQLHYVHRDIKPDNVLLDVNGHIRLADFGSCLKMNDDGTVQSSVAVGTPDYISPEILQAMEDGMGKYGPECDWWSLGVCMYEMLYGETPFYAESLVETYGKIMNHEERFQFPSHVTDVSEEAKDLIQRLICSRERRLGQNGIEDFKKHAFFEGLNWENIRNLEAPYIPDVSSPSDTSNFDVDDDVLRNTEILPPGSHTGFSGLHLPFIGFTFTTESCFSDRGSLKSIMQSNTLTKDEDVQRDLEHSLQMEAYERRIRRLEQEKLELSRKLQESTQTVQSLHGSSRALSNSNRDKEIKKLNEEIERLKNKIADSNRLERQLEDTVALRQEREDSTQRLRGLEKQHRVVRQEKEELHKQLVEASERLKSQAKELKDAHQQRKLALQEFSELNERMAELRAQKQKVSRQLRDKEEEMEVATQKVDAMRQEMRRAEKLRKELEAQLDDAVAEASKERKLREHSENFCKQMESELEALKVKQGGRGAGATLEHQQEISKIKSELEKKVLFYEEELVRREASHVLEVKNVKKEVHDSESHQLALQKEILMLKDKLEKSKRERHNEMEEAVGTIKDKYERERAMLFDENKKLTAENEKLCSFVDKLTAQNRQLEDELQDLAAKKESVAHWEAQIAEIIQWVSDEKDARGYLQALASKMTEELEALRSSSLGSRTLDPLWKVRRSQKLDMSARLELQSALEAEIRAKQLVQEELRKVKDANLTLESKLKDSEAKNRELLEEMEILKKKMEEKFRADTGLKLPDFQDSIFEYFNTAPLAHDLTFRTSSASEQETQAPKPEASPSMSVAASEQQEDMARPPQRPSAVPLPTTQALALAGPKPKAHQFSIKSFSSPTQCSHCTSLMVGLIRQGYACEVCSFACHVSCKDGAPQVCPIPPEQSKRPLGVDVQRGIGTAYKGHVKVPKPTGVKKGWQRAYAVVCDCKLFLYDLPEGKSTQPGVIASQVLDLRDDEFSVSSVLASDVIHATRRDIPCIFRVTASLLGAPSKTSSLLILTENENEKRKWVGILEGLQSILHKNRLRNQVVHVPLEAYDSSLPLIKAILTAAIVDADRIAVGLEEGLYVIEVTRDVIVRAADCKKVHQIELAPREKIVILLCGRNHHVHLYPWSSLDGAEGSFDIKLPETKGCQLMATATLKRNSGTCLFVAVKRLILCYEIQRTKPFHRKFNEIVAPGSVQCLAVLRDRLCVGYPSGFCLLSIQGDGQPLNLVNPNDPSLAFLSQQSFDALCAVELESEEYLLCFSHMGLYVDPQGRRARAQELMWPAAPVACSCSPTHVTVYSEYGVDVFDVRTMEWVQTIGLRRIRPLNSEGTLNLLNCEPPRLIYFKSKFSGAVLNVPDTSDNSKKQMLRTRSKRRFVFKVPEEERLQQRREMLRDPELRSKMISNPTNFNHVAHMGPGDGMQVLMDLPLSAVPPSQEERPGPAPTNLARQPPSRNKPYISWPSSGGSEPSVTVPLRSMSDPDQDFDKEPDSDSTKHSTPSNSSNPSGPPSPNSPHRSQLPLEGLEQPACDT
Sequence of G protein-coupled receptor kinase 4 (Homo sapiens) (P32298 whole entry, looked up): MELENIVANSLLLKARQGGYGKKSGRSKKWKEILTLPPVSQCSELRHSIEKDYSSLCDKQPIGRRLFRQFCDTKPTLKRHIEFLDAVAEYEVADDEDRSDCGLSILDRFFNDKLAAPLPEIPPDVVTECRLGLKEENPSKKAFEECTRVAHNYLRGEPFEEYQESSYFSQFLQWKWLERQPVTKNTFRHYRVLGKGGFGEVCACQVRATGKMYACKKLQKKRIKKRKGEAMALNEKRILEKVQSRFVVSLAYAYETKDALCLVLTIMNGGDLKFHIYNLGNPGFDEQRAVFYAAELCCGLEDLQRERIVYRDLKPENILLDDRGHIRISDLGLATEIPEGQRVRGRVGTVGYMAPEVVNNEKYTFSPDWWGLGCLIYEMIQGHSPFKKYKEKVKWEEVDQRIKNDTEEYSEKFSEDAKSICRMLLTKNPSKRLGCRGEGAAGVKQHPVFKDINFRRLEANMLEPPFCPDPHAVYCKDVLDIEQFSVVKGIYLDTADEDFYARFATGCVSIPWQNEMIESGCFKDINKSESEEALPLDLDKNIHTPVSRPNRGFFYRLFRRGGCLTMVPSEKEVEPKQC
Sequence of Serine/threonine-protein kinase 25 (Homo sapiens) (O00506 whole entry, looked up): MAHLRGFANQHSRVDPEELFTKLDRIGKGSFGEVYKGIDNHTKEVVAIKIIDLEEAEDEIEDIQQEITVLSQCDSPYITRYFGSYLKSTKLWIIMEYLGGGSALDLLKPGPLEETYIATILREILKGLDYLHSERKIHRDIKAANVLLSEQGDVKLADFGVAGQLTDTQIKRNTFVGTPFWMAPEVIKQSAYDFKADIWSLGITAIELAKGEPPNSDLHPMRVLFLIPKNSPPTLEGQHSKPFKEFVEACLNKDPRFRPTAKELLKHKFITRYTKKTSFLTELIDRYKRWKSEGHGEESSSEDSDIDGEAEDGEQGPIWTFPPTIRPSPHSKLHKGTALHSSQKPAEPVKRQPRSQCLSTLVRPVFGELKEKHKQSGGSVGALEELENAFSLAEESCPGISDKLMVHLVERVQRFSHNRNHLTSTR

SMILES: CNC(=O)Nc1ccc(-c2nc(N3CC4CCC(C3)O4)c3cnn(C4CCC5(CC4)OCCO5)c3n2)cc1
% of inhibition [1]: -4%

% of inhibition [2]: -11.2%
SMILES: CC[C@@H]1[C@H](F)C(=O)N[C@@H]1COc1nccc2cc(C(N)=O)c(OC)cc12 [ZIMLOVISERTIB]

% of control ([3]; at 1 µM): 73% | % of control ([3]; at 5 µM): 68%
SMILES: C=CC(=O)Nc1cccc(C(=O)Nc2ccc(Nc3cc(-c4[nH]c(SC)nc4C)ccn3)cc2)c1

SMILES: CN(C)C/C=C/C(=O)Nc1ccc(C(=O)N2CCCC(Nc3ncc(Cl)c(-c4c[nH]c5ccccc45)n3)C2)cc1 (stereo not given)
% of control [4]: 100%

SMILES: CN(C)CCOc1ccc(-c2nc(-c3ccncc3)c(-c3ccc4c(c3)CC/C4=N\O)[nH]2)cc1
% of control [5]: 89%

SMILES: CCC(=O)N1CCN(c2ccc(-n3c(=O)ccc4cnc5ccc(-c6cnc7ccccc7c6)cc5c43)cc2C(F)(F)F)CC1
% of control [6]: 90% | % of control [7]: 84%

SMILES: N#Cc1cccc(-c2c[nH]c3ncnc(N4CCOCC4)c23)c1
% of inhibition [8]: -27% | % of control [9]: 27%
